According to ChEMBL document CHEMBL1201862, “PubChem BioAssay data set” (2004):
Activity calls are given as the source filed them.

Legend:
[1] = target: Heat shock protein HSP 90-alpha (Homo sapiens, UniProt P07900); format: functional, organism-based
[2] = target: T1, RNA-binding protein pos-1 (Caenorhabditis elegans, UniProt G5EF15); test: inhibitors of POS-1/mex-3 RNA binding, dose response, biochemical, fluorescence polarization (AID 1964);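 also: purified POS-1 fused to maltose binding protein made in E. coli; potency of compounds blocking POS-1 binding to fluorescent RNA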
T1 sequence (G5EF15 whole entry): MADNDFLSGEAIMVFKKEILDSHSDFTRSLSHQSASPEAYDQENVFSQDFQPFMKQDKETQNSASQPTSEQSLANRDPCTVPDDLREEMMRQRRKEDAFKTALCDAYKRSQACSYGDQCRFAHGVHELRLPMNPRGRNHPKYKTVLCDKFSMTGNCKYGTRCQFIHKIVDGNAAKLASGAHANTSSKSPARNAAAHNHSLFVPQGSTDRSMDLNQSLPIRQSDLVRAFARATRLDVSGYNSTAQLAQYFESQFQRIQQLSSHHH

[3] = target: T2, Zinc finger protein mex-5 (Caenorhabditis elegans, UniProt Q9XUB2); test: MEX-5/TCR-2 RNA interaction inhibitors, dose response, biochemical, C. elegans, fluorescence polarization (AID 1960)
T2 sequence (Q9XUB2 whole entry): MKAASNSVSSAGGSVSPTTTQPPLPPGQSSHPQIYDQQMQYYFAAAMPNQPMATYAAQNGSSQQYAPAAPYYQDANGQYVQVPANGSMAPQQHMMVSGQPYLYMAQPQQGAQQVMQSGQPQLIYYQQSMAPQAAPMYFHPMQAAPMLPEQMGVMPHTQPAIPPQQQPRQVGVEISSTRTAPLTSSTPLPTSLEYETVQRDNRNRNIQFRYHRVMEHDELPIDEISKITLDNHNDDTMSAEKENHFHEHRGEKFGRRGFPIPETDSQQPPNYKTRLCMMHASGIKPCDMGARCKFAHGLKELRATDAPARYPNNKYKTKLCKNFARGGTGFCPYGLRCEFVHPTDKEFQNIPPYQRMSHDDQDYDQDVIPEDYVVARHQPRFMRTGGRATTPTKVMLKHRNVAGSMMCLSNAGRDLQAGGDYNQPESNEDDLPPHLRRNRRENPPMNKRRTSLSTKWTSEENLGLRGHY

[4] = target: T3, Fatty acid synthase (Homo sapiens, UniProt P49327); test: FAS thioesterase domain inhibitors, dose response, biochemical, endpoint fluorescence intensity, uHTS hits (AID 624327); format: functional;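 also: fluorescence from hydrolysis of an O-methyl fluorescein acyl ester substrate by the enzyme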
T3 sequence (P49327 whole entry, the tested form may be a part): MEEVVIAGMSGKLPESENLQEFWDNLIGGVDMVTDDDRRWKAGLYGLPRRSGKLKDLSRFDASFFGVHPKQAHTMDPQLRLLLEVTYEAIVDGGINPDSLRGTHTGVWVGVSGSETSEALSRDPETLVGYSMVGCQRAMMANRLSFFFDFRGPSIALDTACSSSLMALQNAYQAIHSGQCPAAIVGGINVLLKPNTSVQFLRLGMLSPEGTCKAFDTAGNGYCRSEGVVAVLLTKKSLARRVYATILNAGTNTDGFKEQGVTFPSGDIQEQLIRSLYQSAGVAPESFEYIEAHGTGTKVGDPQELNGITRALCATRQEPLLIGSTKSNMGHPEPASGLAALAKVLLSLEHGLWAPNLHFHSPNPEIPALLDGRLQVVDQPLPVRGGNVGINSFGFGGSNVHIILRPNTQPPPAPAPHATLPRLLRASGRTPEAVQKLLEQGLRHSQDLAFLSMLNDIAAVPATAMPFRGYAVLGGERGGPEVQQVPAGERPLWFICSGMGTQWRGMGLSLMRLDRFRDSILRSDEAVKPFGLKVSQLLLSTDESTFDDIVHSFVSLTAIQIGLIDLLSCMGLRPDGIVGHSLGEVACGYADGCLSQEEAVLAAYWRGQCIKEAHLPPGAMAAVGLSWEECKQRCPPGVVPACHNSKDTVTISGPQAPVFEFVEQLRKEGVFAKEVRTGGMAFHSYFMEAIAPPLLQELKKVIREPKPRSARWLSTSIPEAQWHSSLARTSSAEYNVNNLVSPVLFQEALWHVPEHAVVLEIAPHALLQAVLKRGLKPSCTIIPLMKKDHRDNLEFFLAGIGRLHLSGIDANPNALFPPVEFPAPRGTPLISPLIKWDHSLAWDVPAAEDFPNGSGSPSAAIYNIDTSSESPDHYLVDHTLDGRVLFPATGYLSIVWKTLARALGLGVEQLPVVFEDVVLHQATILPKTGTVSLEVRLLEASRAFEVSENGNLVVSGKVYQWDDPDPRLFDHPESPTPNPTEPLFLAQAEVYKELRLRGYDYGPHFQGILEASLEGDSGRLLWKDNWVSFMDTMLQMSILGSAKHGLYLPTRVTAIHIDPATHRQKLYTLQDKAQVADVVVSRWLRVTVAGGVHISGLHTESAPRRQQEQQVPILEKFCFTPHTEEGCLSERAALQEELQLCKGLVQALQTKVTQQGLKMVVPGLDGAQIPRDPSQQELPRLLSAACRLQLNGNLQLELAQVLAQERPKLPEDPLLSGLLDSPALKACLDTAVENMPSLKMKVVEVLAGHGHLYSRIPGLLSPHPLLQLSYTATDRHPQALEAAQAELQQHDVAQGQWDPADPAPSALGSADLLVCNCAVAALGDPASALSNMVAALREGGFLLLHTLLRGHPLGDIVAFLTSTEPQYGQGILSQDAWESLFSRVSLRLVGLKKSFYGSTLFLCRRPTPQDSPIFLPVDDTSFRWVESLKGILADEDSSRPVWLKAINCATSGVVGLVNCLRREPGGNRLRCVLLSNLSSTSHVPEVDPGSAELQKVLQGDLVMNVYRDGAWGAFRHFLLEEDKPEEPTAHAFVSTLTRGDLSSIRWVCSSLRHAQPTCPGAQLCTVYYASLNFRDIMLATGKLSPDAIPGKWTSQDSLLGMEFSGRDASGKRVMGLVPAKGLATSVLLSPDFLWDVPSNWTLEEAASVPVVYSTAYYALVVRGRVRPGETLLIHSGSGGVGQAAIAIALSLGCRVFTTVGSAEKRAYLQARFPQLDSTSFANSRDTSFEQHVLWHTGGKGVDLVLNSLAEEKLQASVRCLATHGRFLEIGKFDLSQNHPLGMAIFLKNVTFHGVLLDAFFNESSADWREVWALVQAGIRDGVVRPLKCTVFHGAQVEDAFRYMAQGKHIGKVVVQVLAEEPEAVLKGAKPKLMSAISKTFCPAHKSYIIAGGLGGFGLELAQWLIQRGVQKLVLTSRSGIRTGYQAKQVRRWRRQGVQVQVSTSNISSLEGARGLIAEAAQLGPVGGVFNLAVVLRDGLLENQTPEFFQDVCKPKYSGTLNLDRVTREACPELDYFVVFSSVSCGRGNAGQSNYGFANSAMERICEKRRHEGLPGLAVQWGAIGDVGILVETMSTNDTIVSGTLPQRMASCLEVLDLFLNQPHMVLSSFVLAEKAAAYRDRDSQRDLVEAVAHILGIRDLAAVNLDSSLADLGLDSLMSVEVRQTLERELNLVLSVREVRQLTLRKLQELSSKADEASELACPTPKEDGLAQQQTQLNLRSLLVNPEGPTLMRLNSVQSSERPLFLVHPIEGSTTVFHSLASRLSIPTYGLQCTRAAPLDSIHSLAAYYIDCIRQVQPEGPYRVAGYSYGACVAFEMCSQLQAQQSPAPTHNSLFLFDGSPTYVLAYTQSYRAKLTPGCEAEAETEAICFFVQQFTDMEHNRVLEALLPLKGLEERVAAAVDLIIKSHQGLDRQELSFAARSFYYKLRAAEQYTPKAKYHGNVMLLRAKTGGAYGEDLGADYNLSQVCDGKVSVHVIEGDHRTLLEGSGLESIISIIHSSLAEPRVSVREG

[5] = target: T3, Fatty acid synthase; test: FAS thioesterase domain inhibitors, dose response, biochemical, kinetic fluorescence intensity (AID 624326); format: functional;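 also: rate of fluorescence rise from hydrolysis of a fluorogenic O-methyl fluorescein ester substrate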
[6] = target: T4, Ubiquitin-conjugating enzyme E2 N (Homo sapiens, UniProt P61088); format: functional;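 also: Dose-response confirmation in a TR-FRET assay detecting UBC13-driven polyubiquitin chain formation, inhibition measured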
T4 sequence (P61088 whole entry): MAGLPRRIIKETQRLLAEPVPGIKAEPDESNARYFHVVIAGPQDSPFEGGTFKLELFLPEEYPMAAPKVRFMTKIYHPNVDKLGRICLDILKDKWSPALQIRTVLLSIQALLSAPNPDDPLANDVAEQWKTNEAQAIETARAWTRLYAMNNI

[7] = NIH-3T3 fibroblast cytotoxicity, dose response, cytotoxicity control, cell-based, fluorescence, Alamar Blue, secondary assay (AID 2327); format: functional;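 also: NIH-3T3 mouse fibroblasts cultured with fluconazole at 8 µg/mL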
[8] = C. albicans growth with fluconazole, confirmation, fluorescence, retest (AID 2467); format: functional, cell-based
[9] = system: Vero; test: cells; format: functional; conditions: Chlorocebus sabaeus
[10] = target: T5, Replicative DNA helicase DnaB (Mycobacterium tuberculosis, UniProt P9WMR3); test: DnaB intein splicing inhibitors, dose response, biochemical, cell-free fluorescence (AID 449749); format: functional
T5 sequence (P9WMR3 whole entry): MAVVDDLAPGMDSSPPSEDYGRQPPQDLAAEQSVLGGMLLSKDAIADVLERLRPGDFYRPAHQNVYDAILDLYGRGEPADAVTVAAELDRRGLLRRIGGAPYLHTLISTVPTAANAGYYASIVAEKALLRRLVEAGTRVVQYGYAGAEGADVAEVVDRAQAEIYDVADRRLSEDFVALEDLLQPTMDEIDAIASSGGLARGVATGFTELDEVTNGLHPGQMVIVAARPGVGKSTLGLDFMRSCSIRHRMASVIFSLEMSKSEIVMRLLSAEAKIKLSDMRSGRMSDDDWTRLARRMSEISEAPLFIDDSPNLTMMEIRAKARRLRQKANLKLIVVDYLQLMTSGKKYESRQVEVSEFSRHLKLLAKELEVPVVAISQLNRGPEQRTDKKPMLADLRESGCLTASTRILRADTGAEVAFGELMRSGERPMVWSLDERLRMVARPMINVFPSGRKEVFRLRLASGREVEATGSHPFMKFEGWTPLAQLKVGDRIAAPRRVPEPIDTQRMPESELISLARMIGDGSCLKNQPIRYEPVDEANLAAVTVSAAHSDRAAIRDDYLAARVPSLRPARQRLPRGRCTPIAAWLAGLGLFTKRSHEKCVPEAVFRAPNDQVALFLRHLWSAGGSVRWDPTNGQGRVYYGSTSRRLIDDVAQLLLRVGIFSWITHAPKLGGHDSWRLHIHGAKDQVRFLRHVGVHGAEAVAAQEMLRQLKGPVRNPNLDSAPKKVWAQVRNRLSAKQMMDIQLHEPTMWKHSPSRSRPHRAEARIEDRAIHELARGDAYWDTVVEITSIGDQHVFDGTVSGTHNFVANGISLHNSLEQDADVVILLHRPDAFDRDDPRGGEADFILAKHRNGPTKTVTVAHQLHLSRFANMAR

[11] = target: T6, Protein RecA (Mycobacterium tuberculosis, UniProt P9WHJ3); test: Fluorescence Cell-Free Homogeneous Dose Retest to Identify Inhibitors of RecA-Intein Splicing Activity. [Related pubchem assays (depositor defined):AID2097, AID2223, AID489010, AID492950]; format: functional
T6 sequence (P9WHJ3 whole entry): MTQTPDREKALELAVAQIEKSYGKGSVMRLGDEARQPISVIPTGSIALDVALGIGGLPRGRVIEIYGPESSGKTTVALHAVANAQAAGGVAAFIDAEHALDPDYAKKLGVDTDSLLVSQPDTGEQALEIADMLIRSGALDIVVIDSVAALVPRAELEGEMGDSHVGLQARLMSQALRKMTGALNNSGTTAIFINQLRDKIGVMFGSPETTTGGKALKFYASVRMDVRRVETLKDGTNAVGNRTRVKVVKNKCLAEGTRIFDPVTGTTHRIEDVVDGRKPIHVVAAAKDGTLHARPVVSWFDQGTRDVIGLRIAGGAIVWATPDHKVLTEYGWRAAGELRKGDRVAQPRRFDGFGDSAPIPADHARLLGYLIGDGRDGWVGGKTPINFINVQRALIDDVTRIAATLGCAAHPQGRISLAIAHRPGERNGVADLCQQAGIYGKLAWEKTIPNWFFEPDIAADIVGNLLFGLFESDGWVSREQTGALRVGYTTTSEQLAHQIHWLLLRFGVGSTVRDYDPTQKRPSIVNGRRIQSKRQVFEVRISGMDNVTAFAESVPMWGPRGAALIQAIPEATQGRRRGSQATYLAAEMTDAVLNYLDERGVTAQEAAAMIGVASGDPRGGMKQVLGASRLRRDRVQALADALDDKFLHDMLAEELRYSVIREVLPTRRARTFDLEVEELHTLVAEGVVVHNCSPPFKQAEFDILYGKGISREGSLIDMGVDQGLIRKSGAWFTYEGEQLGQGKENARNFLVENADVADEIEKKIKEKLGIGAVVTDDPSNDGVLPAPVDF

[12] = system: H9c2; test: cells; format: functional, cell-based; conditions: Rattus norvegicus, H9c2, Myocardium;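 also: confirmatory concentration-response retest of ultra-high-throughput screening hits for modulation of myocardial damage; cell death induced by hydrogen peroxide oxidative stress; compound pretreatment for 60 min then peroxide exposure for 2 h; potency is for protecting the cells against peroxide damage rather than for killing them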
[13] = cells; format: functional
[14] = Luminescence Cell-Based Dose Confirmation HTS to Identify Activators of 5'UTR Stem-Loop Driven Alpha-Synuclein mRNA Translation in H4 Neuroglioblastoma Cells. [Related pubchem assays: 1829 (Project Summary), 1814 (Primary HTS)]; format: functional
[15] = Luminescence Cell-Based Dose Response HTS to Identify Activators of Luciferase Translation or Activity in H4 […] Cells. [Related pubchem assays: 1829 (Project Summary), 1814 (Primary HTS)]; format: functional
[16] = system: H4; test: Luminescence Cell-Based Dose Response HTS to Identify Activators of 5'UTR Stem-Loop Driven Prion Protein mRNA Translation in H4 Neuroglioblastoma Cells. [Related pubchem assays: 1829 (Project Summary), 1814 (Primary HTS)]; format: functional; conditions: Homo sapiens
[17] = Luminescence Cell-Based Dose Retest to Confirm Inhibitors of Cancer Stem Cells. [Related pubchem assays (depositor defined):AID2717, AID2721]; format: functional; conditions: Homo sapiens

## Cc1ccc(N2C(=O)C3C4C=CC(CN=C(S)N5CCN(c6ccccn6)CC5)(O4)C3C2=O)cc1 (stereo unspecified)
[1]
  AC50: 7.77 µM (active)

## Cc1ccc(C(=O)CSc2nc3c(=O)n(C)c(=O)n(C)c3[nH]2)cc1
[2]
  EC50: > 300 µM (not active)
[3]
  EC50: > 300 µM (not active)

## O=C(COc1ccc([N+](=O)[O-])cc1)Nc1ccc2c(c1)CCC2
[4]
  IC50: 14.6 µM (active)
[5]
  IC50: 6.78 µM (active)

## CN1CCN(CCCNC(=O)c2cn(C3CCCCC3)c(=O)c3c2c2ccccc2n3C)CC1
[6]
  IC50: > 20 µM (inactive)

## CCOc1ccc(Nc2nc(NCC3CCCO3)c3ccccc3n2)cc1 (stereo unspecified)
[7]
  EC50: 33.5 µM (inconclusive)
[8]
  EC50: 2.32 µM (active)
[6]
  IC50: > 20 µM (inactive)

## CCc1ccc(C(=O)NNC(=O)c2ccc(=O)n(C)n2)cc1
[2]
  EC50: > 300 µM (not active)
[3]
  EC50: 6.42 µM (active)

## C/C(=N\Nc1ncc(Cl)cc1Cl)c1ccc(OC(F)F)cc1
[4]
  IC50: 16.1 µM (active)
[5]
  IC50: 14.2 µM (active)

## CC(=O)N1CCN(S(=O)(=O)c2cccc(C(=O)OCc3ccc(C(C)(C)C)cc3)c2)CC1
[4]
  IC50: 0.376 µM (active)
[5]
  IC50: 0.205 µM (active)

## COc1ccc2[nH]c(C(=O)N3CCC(CO)(Cc4cccc(C(F)(F)F)c4)CC3)c(C)c2c1
[9]
  CC50: > 25 µM (active)

## CCN(CC)C(=O)C1CCCN(c2ccc([N+](=O)[O-])cc2/C=N/NC(=O)c2cccc(O)c2)C1 (stereo unspecified)
[4]
  IC50: 1.93 µM (active)
[5]
  IC50: 1.57 µM (active)

## Cc1ccccc1C(CC(=O)c1cccs1)C(C#N)C#N (stereo unspecified)
[10]
  AC50: > 380 µM (inconclusive)
[11]
  EC50: 1.17 µM (active)
[9]
  CC50: 17 µM (active)

## O=C(N/N=C/c1ccc(-c2cccc([N+](=O)[O-])c2)o1)c1ccc([N+](=O)[O-])cc1
[2]
  EC50: > 300 µM (not active)
[3]
  EC50: > 300 µM (not active)
[12]
  IC50: > 79 µM (inactive)

## O=C(O)CCC(=O)NNc1nc(-c2ccccc2)c2cc(Cl)ccc2n1
[2]
  EC50: > 300 µM (not active)
[3]
  EC50: 9.18 µM (active)

## CC(=O)OCCN(C)c1cc(SC(C)C)c2nonc2c1[N+](=O)[O-]
[13]
  IC50: 41.4 µM (active)
[10]
  AC50: > 380 µM (inactive)
[11]
  EC50: > 380 µM (inactive)

## COc1c(O)cccc1[C@@H](O)C1CCN(CCc2ccc(F)cc2)CC1
[2]
  EC50: 13.8 µM (active)
[3]
  EC50: 14.1 µM (inconclusive)

## Cc1cccc(C(=O)Oc2ccc(/C=N/NC(=O)Cc3ccc([N+](=O)[O-])cc3)cc2)c1
[6]
  IC50: > 20 µM (inactive)

## COc1ccc(C2=NOC(COC(=O)c3ccc4ccccc4n3)C2)cc1 (stereo unspecified)
[14]
  EC50: 17.2 µM (active)
[15]
  EC50: > 120 µM (not active)
[16]
  EC50: 4.71 µM (active)
[13]
  IC50: 9.07 µM (active)

## COc1ccccc1-c1sc2cc3c(cc2c1C#Cc1cncn1C)OCO3
[17]
  AC50: 4.18 µM (active)
[6]
  IC50: > 20 µM (inactive)

## COc1cc(OC)c(C2=NOC(C(=O)N3CCc4ccccc4C3)C2)cc1Cl (stereo unspecified)
[4]
  IC50: 3.02 µM (active)
[5]
  IC50: 2.28 µM (active)

## COc1ccc(/C=C2/Sc3ccc(C(=O)NCCN4CCCCCC4)cc3NC2=O)cc1
[6]
  IC50: > 20 µM (inactive)

## NC(=O)c1nsc(C(=O)N(c2ccccc2F)C(C(=O)NCc2ccc(F)cc2)c2ccc(O)cc2)c1N (stereo unspecified)
[6]
  IC50: > 20 µM (inactive)
[12]
  IC50: 29.8 µM (active)

## O=C(NCc1ccccc1)/C(=C/c1cccc([N+](=O)[O-])c1)NC(=O)c1ccco1
[4]
  IC50: 4.49 µM (active)
[5]
  IC50: 4.38 µM (active)

## CCc1ccc(S(=O)(=O)c2nnn3c2nc(NCCNC(C)=O)c2ccccc23)cc1
[4]
  IC50: 3.84 µM (active)
[5]
  IC50: 3.5 µM (active)

## O=C1CC(N2CCCN(C3CC(=O)N(c4ccc(F)cc4)C3=O)CC2)C(=O)N1c1ccc(F)cc1 (stereo unspecified)
[1]
  AC50: 4.32 µM (active)

## COC(=O)CCCCCN1C(=O)/C(=C\c2ccncc2)SC1=S
[13]
  IC50: 7.86 µM (active)
[10]
  AC50: 12.2 µM (active)
[11]
  EC50: 17.7 µM (active)
